From patent US9902725B2, “Heterocyclic derivatives as RORgamma modulators” (GENFIT, priority 2014, dated 2018)

Legend:
[1] = molecular target: T1, RORγt ligand-binding domain (RORγt-LBD) (Homo sapiens, UniProt P51449); assay: Time-resolved FRET (TR-FRET) RORγt coactivator assay; type: biochemical; conditions: GST-RORγ-LBD, biotinylated RIP140 peptide, coactivator displacement
T1 construct: 20 nM recombinantly expressed RORγ-LBD fused to GST
T1 sequence (P51449 269-508 limits assumed): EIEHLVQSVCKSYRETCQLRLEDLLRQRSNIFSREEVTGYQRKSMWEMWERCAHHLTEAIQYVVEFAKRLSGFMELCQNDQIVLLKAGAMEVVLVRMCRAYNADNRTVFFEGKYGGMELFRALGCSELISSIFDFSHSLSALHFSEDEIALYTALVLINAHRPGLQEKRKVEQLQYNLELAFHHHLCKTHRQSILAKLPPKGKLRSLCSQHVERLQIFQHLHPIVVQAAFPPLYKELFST

[2] = Microsomal stability, human microsomes (CEREP); type: in vitro ADME; conditions: 0.1 μM, 0.1 mg/mL microsomal protein
Description: (§1) All the assays were conducted at CEREP (CEREP, France and USA). Metabolic compound stability was tested in human (CEREP, Ref 607) and mouse (CEREP, Ref: 806) microsomes. Inhibition of human drug-metabolizing cytochromes P450 was tested on the five most commonly responsible enzymes of metabolism of xenobiotics, CYP1A2 (CEREP, Ref 389), CYP2C9 (CEREP, Ref 412), CYP2C19 (CEREP, Ref 390), CYP2D6 (CEREP, Ref 1338) and CYP3A4 (CEREP, Ref 391).
(§2) Briefly, the standard conditions for CEREP's stability assays include incubation of test compound at 0.1 μM with human or mouse microsomes for 60 minutes in duplicate. The protein concentration of microsomes is 0.1 mg/mL. The parent compound is detected by HPLC-MS/MS analysis. The quantity of the parent compound that remains intact upon 60 minutes of microsome exposure (% remaining) is calculated by comparing the peak area of the parent compound at 60 minutes of exposure to the time zero.

[3] = Microsomal stability, mouse microsomes (CEREP); type: in vitro ADME; conditions: 0.1 μM, 0.1 mg/mL microsomal protein
Description: as §1, §2

CYP1A2 = molecular target: T2, CYP1A2 (Homo sapiens, UniProt P05177); assay: CYP inhibition CYP1A2 (CEREP); type: in vitro ADME; conditions: human, recombinant CYP1A2, probe 3-cyano-7-ethoxycoumarin, single concentration (typically 10 μM), read-out: CYP 1A2 (% inhibition of Control)
T2 sequence (P05177 1-516): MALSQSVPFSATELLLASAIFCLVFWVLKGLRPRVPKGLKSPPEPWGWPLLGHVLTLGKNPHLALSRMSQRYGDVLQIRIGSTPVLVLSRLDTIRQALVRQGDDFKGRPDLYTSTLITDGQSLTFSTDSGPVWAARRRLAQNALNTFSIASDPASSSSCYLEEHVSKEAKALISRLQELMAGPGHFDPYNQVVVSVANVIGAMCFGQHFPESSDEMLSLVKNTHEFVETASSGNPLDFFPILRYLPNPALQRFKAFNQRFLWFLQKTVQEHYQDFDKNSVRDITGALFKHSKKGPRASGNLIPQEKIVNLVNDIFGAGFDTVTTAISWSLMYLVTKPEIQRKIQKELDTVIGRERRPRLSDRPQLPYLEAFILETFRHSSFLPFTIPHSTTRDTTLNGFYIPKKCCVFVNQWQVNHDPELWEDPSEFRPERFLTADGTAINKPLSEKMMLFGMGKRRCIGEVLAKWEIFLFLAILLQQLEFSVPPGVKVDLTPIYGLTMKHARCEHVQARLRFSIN
Description: as §1
(§3) Briefly, CEREP's CYP inhibition assay uses traditional probe substrates, which are specific to individual CYP isoforms. 3-cyano-7-ethoxycoumarin is mainly catalyzed by CYP1A2 and CYP2C19, 3-[2-(N,N-diethyl-N-methylammonium)ethyl]-7-methoxy-4-methylcoumarin for CYP2C9 and CYP2D6 and finally, 7-benzyloxy-4-trifluoromethylcoumarin is pathway catalyzed predominantly by CYP3A4. The inhibition assays were performed with human recombinant CYP isoforms preparations. HPLC MS/MS methods are used to detect metabolites in these assays. Compounds were tested at single concentrations (typically 10 μM) and data were expressed as percent of control inhibition.

CYP2C9 = CYP2C9 (Homo sapiens, UniProt P11712); assay: CYP inhibition CYP2C9 (CEREP); type: in vitro ADME; conditions: human, recombinant CYP2C9, human recombinant CYP, single concentration (typically 10 μM); read-out: CYP 2C9 (% inhibition of Control)
Description: as §1, §3

CYP2C19 = CYP2C19 (Homo sapiens, UniProt P33261); assay: CYP inhibition CYP2C19 (CEREP); type: in vitro ADME; conditions: human, recombinant CYP2C19, probe 3-cyano-7-ethoxycoumarin, single concentration (typically 10 μM), read-out: CYP 2C19 (% inhibition of Control)
Description: as §1, §3

CYP3A4 = CYP3A4 (Homo sapiens, UniProt P08684); assay: CYP inhibition CYP3A4 (CEREP); type: in vitro ADME; conditions: human, recombinant CYP3A4, probe 7-benzyloxy-4-trifluoromethylcoumarin, single concentration (typically 10 μM), read-out: CYP 3A4 (% inhibition of Control)
Description: as §1, §3

Sequence of CYP2C9 (P11712 whole entry): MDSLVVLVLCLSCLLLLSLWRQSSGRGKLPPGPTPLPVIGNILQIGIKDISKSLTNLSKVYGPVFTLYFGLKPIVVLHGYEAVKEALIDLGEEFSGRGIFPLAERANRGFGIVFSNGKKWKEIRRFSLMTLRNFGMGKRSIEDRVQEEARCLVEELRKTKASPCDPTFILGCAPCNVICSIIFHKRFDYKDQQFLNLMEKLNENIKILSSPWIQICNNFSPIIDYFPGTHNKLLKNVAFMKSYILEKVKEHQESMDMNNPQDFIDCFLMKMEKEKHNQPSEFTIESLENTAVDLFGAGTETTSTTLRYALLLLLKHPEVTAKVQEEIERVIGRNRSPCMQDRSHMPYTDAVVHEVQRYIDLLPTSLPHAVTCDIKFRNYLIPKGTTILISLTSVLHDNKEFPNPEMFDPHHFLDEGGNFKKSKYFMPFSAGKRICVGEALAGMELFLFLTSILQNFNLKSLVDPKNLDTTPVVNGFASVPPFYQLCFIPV
Sequence of CYP3A4 (P08684 whole entry): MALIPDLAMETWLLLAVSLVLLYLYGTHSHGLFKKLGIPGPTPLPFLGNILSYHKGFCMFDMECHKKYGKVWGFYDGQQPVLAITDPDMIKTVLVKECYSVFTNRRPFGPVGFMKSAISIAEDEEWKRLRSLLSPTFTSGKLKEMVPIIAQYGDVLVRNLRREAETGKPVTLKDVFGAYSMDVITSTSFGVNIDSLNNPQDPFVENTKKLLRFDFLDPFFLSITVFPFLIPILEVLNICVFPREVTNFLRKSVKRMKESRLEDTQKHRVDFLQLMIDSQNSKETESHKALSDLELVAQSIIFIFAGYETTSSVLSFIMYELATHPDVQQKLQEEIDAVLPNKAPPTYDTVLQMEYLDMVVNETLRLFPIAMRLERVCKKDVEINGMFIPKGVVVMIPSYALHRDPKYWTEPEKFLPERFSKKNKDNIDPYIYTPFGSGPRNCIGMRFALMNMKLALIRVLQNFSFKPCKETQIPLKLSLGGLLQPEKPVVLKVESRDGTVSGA
Sequence of CYP2C19 (P33261 whole entry): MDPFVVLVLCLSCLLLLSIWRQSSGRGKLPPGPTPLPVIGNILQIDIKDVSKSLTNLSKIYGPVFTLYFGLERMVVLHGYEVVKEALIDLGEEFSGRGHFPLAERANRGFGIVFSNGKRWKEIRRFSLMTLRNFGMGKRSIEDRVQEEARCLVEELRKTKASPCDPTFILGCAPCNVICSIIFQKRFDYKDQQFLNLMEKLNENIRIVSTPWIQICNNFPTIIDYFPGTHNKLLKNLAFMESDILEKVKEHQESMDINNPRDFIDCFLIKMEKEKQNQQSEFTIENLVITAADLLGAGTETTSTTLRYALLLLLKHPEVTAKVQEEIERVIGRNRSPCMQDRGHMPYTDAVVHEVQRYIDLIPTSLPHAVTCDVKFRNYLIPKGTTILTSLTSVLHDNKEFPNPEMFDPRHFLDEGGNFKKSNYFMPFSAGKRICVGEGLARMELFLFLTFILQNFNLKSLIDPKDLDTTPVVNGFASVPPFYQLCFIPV

Row | IC50 [1] | Human microsomes (% Cpd. remaining at 60 min) [2] | Mouse microsomes (% Cpd. remaining at 60 min) [3] | inhibition at 10 µM (CYP1A2) | inhibition at 10 µM (CYP2C9) | inhibition at 10 µM (CYP2C19) | inhibition at 10 µM (CYP3A4) | Compound
1 | < 1 µM | 89% | 50% | 4.4% | 35.9% | 25% | 25.8% | Cc1ccc(C(NC(=O)Cc2ccc3[nH]cc(CCC(=O)O)c3c2)c2ccccc2)c(N2CCCC2)c1 (stereo not shown) [Cpd. 5, 3-{5-[({[4-methyl-2-(pyrrolidin-1-yl)phenyl](phenyl)methyl}carbamoyl)methyl]-1H-indol-3-yl}propanoic acid]
2 | < 1 µM | 23% | 20% | -8.2% | 14.9% | 14.1% | 47.2% | CC(C)CC(NC(=O)Cc1ccc2[nH]cc(CCC(=O)O)c2c1)c1ccccc1N1CCCCC1 (stereo not shown) [Cpd. 29, 3-{5-[({3-methyl-1-[2-(piperidin-1-yl)phenyl]butyl}carbamoyl)methyl]-1H-indol-3-yl}propanoic acid]
3 | < 1 µM | 88% | 31% | -0.9% | 23.2% | 28.1% | 31.3% | Cc1ccc(C(NC(=O)Cc2ccc3[nH]cc(CCC(=O)O)c3c2)c2ccccc2)c(N2CCCCC2)c1 (stereo not shown) [Cpd. 77, 3-{5-[({[4-methyl-2-(piperidin-1-yl)phenyl](phenyl)methyl}carbamoyl)methyl]-1H-indol-3-yl}propanoic acid]
4 | < 1 µM | 79% | 66% | -1.9% | 28.6% | 31.2% | 30.9% | Cc1ccc(C(NC(=O)Cc2ccc3[nH]cc(CCC(=O)O)c3c2)c2ccccc2)c(N(C)C)c1 (stereo not shown) [Cpd. 192, 3-{5-[({[2-(dimethylamino)-4-methylphenyl](phenyl)methyl}carbamoyl)methyl]-1H-indol-3-yl}propanoic acid]

The next lines start with the compound.

Row | Compound | IC50 [1] | Human microsomes (% Cpd. remaining at 60 min) [2] | Mouse microsomes (% Cpd. remaining at 60 min) [3] | inhibition at 10 µM (CYP1A2) | inhibition at 10 µM (CYP2C9) | inhibition at 10 µM (CYP2C19) | inhibition at 10 µM (CYP3A4)
5 | O=C(O)CCc1c[nH]c2ccc(CC(=O)NC(c3ccccc3)c3ccccc3N3CCCCC3)cc12 (stereo not shown) [Cpd. 1, 3-{5-[({phenyl[2-(piperidin-1-yl)phenyl]methyl}carbamoyl)methyl]-1H-indol-3-yl}propanoic acid] | < 1 µM | 54% | 35% | 1% | 12% | 13% | 19%
6 | O=C(O)CCc1c[nH]c2ccc(CC(=O)NC(c3cccc(F)c3)c3ccccc3N3CCCCC3)cc12 (stereo not shown) [Cpd. 3, 3-[5-({[(3-fluorophenyl)[2-(piperidin-1-yl)phenyl]methyl]carbamoyl}methyl)-1H-indol-3-yl]propanoic acid] | < 1 µM | 36% | 22% | 2.9% | 52.7% | 58.8% | 60.9%
7 | O=C(O)CCc1c[nH]c2ccc(CC(=O)NC(c3ccccc3)c3ccc(C(F)(F)F)cc3N3CCCC3)cc12 (stereo not shown) [Cpd. 48, 3-{5-[({phenyl[2-(pyrrolidin-1-yl)-4-(trifluoromethyl)phenyl]methyl}carbamoyl)methyl]-1H-indol-3-yl}propanoic acid] | < 1 µM | 83% | 53% | 10.7% | 24.6% | 35% | 33.7%
8 | O=C(O)CCc1c[nH]c2ccc(CC(=O)NC(c3ccccc3)c3ccc(Br)cc3N3CCCC3)cc12 (stereo not shown) [Cpd. 50, 3-{5-[({[4-bromo-2-(pyrrolidin-1-yl)phenyl](phenyl)methyl}carbamoyl)methyl]-1H-indol-3-yl}propanoic acid] | < 1 µM | 92% | 38% | 0.9% | 15.8% | 32.3% | 36.8%
9 | COc1ccc(C(NC(=O)Cc2ccc3[nH]cc(CCC(=O)O)c3c2)c2ccccc2)c(N2CCCCC2)c1 (stereo not shown) [Cpd. 111, 3-{5-[({[4-methoxy-2-(piperidin-1-yl)phenyl](phenyl)methyl}carbamoyl)methyl]-1H-indol-3-yl}propanoic acid] | < 1 µM | 88% | 37% | -12.4% | 28.2% | 29.4% | 40.1%
10 | O=C(O)CCCc1c[nH]c2ccc(CC(=O)NC(c3ccccc3)c3ccccc3N3CCCCC3)cc12 (stereo not shown) [Cpd. 212, 4-{5-[({phenyl[2-(piperidin-1-yl)phenyl]methyl}carbamoyl)methyl]-1H-indol-3-yl}butanoic acid] | < 1 µM | 26% | 11% | -5.4% | 29.5% | 32.2% | 31%
